Results as given in patent US7556938B1, “Nucleic acids encoding potassium channel interactors” (Millennium Pharmaceuticals, Inc., priority 1998, dated 2009).

Columns and labels:
Kv4.3/KChIP1 = molecular target: T1, Kv4.3/KChIP1 (Rattus norvegicus, UniProt Q62897); test: Fatty acid modulation of Kv4.3/KChIP1 current in Xenopus oocytes; type: cell-based; conditions: for block of Kv4.3 peak amplitude: Kv4.3/KChIP1, 10 μM fatty acid, vs no-fatty acid control; for effect on Kv4.3 inactivation time constant: Kv4.3 co-expressed with KChIP1, 10 μM fatty acid
T1 sequence (Q62897 1-655): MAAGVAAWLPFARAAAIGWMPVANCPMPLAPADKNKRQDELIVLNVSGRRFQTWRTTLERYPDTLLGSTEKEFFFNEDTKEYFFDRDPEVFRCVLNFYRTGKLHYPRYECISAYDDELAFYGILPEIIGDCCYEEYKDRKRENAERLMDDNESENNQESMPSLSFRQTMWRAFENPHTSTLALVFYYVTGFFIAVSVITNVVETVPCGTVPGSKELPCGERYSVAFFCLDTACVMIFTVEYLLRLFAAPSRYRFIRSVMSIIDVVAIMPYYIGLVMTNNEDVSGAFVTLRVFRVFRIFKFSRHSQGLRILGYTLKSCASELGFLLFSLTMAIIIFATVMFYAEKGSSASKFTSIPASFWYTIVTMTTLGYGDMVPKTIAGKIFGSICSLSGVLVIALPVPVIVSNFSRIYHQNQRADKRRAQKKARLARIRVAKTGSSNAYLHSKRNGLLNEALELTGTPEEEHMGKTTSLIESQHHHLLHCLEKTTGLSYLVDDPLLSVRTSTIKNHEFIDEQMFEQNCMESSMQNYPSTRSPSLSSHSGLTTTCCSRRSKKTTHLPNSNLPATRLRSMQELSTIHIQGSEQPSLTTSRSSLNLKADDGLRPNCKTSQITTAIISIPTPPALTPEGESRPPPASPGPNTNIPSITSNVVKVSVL
T1 sequence (Q8R426 1-216 isoform Q8R426-2 partner): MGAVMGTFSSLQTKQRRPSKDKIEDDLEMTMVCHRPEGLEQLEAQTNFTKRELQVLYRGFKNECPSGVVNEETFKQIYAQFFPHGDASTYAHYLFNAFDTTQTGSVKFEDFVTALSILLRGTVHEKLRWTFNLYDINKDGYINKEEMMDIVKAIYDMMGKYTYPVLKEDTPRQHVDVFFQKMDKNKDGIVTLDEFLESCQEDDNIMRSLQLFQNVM
Experimental: (§1) Frogs underwent no more than two surgeries and surgeries were performed by well established techniques. Frogs were anesthetized with ice. Total cRNA (1-10 ng) was injected into stage IV Xenopus oocytes that were harvested the previous day. The Xenopus oocytes were incubated in ND96 containing (in mM) 96 NaCl, 2 KCl, 1.8 CaCl2, 1 MgCl2, 5 HEPES, pH 7.6, plus (Gentamycin 50 μg/ml) at 18° C. Xenopus oocytes were studied 3-7 days after injection. The two-electrode voltage-clamp recordings were performed in ND96 solution using a TURBO TEC 03 Clamp Amplifier (ALA Scientific Instruments, Westbury, N.Y.). Both electrodes were filled with 3 M KCl and had electrode resistances ranging from 0.2-1 MOhm. The current signals were filtered at 1000 Hz before transferred on a PC (Gateway, Calif.) using the PULSE software (HEKA, Germany). In this Example, the hypothesis that […] were the missing auxiliary subunits that accounted for the above kinetic discrepancy was investigated by expressing Kv4 alone or together with […] in both CHO cells and Xenopus oocytes, and measuring their inactivation time constants (using art known techniques as described in, for example, An et al. (2000) Nature 403:553-6; Keros, S. and […]. Neuroscience 17: 3476-87; and Villarroel, A. and […]. Neuroscience 16:2522-32). The effects of different concentrations of arachidonic acid on Kv4/KChIP current was studied in Xenopus oocytes. Because the physiological concentrations of arachidonic acid are often under 10 μM (Needleman, et al., 1986 Annu Rev Biochem 55:69-102; Anderson and Welsh, 1990, Proc Natl Acad Sci USA 87:7334-8; Meves, 1994, Prog Neurobiol 43:175-86), arachidonic acid was tested in the 1-10 μM range. […] Further, the slope of amplitude reduction as a function of increasing concentrations was very similar with or without the presence of […]. […] Villarroel and Schwarz, (1996) J.

Kv4.3 = test: Fatty acid modulation of Kv4.3 current (Kv4.3 alone) in Xenopus oocytes; type: cell-based, rat; conditions: Kv4.3 alone, 10 μM fatty acid, vs no-fatty acid control
Experimental: as §1

Row | block of Kv4.3 peak amplitude (Kv4.3/KChIP1) | effect on Kv4.3 inactivation time constant (Kv4.3/KChIP1) | Compound | block of Kv4.3 peak amplitude (Kv4.3)
1 | inhibited significantly | reduced Kv4.3 inactivation time constant | CCCCCCCCC#CCC#CCC#CCCCC(=O)O [ETI, 5,8,11-eicosatriynoic acid] | inhibited significantly
2 | inhibited significantly | reduced Kv4.3 inactivation time constant | CCCCCC#CCC#CCC#CCC#CCCCC(=O)O [ETYA, 5,8,11,14-eicosatetraynoic acid] | inhibited significantly
3 | inhibited significantly | reduced Kv4.3 inactivation time constant | CCCCC/C=C\C/C=C\C/C=C\CCCCC(=O)O [γ-linolenic acid] | inhibited significantly

Row | Compound | block of Kv4.3 peak amplitude (Kv4.3/KChIP1) | effect on Kv4.3 inactivation time constant (Kv4.3/KChIP1) | block of Kv4.3 peak amplitude (Kv4.3)
4 | CCCCC/C=C/C/C=C/CCCCCCCC(=O)O [linolelaidic acid] | small, statistically significant block | did not affect the Kv4.3 inactivation time constant | All values except that of linolelaidic acid/Kv4.3 alone were statistically significant
